According to ChEMBL document CHEMBL1155636, “Dihydrophenanthrenes from Spiranthes sinensis” (J Nat Prod, 2000):
Calls of active or inactive are those of the source. The rule behind the calls is not given here.

What was measured:
Type in all cases: cell-based
MS-G2 [1] = experiment: Inhibition of Hepatitis B virus E antigen activity in human MS-G2 cells at 5 ug/mL
MS-G2 [2] = experiment: Inhibition of Hepatitis B virus E antigen activity in human MS-G2 cells at 10 ug/mL
[3] = Cytotoxicity against human MS-G2 cells at 20 ug/mL

| SMILES | Activity (MS-G2 [1]) | Activity (MS-G2 [2]) | Activity [3] |
| --- | --- | --- | --- |
| COc1cc(OC)c2c(c1Cc1ccc(O)cc1)CCc1cc(O)ccc1-2 [SINENSOL A] | inactive | inactive | Active |
| COc1cc(OC)c2c(c1Cc1ccc(O)cc1)CCc1c-2ccc(O)c1CC=C(C)C [SINENSOL B] | inactive | inactive | Active |
| COc1cc(O)c(Cc2ccc(O)cc2)c2c1-c1ccc(O)c(CC=C(C)C)c1CC2 [SINENSOL C] | inactive | inactive | Active |
| COc1cc(O)c2c(c1Cc1ccc(O)cc1)CCc1c-2ccc2c1C=CC(C)(C)O2 [SINENSOL D] | inactive | inactive | Active |
| COc1cc(O)c2c(c1Cc1ccc(O)cc1)CCc1c-2ccc2c1CC(C(C)(C)O)O2 (stereo not drawn) [SINENSOL E] | inactive | inactive | Active |
| COc1cc(O)c2c(c1Cc1ccc(O)cc1)CCc1c-2cc(Cc2ccc(O)cc2)c(O)c1CC=C(C)C [SINENSOL F] | inactive | inactive | Active |
